PMC10313921, “A living ex vivo platform for functional, personalized brain cancer diagnosis” (Cell Reports Medicine, 2023)

Assays:
[1] = system: LN229 (established GBM line); experiment: Drug screening of LN229 tumor foci on OBSCs; assay type: cell-based, human
Procedure, shortened: (§1)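 Bioluminescence viability readout, 3 d post-treatment, normalized to day-1 tumor fluorescence vs untreated; 6 drug concentrations or XRad, n = 4 foci per concentration. Drug sensitivity score sums weighted parameters comparing tumor kill with OBSC toxicity, ranging −100 to 100.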

[2] = system: MB231Br (breast cancer metastasis to brain); experiment: Drug screening of MB231Br tumor foci on OBSCs; assay type: cell-based, human
[3] = system: PIS patient tumor tissue (intracranial sarcoma); experiment: Drug screening of uncultured patient tumor tissue PIS on OBSCs; assay type: cell-based, human; conditions: Homo sapiens; PIS on OBSCs; dose required to kill 90% of the tumor
Procedure, shortened: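 Uncultured patient tumour tissue, transduced with mCherry-FLuc lentivirus, engrafted on organotypic brain slice cultures (OBSCs); six drug concentrations or X-ray dosing given one day after seeding, n = 4 foci per concentration. Bioluminescence with luciferin read three days post-treatment, normalised to day one and untreated controls; drug sensitivity score combines weighted therapeutic-window parameters versus OBSC toxicity (−100 to 100).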

[4] = system: U373WT (wild-type established GBM line); experiment: Drug screening of U373WT tumor foci on OBSCs; assay type: cell-based, human; conditions: U373 WT on OBSCs
Procedure, shortened: as §1

[5] = system: GBM8 (high-passage patient-derived GBM line); experiment: Drug screening of GBM8 tumor foci on OBSCs; assay type: cell-based, human
Procedure, shortened: as §1

[6] = system: MMG-II patient tumor tissue (WHO grade II meningioma, multiple tumors); experiment: Drug screening of uncultured patient tumor tissue MMG-II on OBSCs; assay type: cell-based; conditions: Homo sapiens, dose required to kill 90% of the tumor
Protocol: Tumor cells were seeded onto OBSCs 2h after slicing as described above. One day after tumor seeding, six concentrations of each drug were diluted in the media underneath each culture insert, or XRad was applied using an X-Rad 320 Precision X-ray machine (n = 4 tumor foci per concentration; n ≥ 24 tumor foci per drug per cell line). Three days after treatment, the bioluminescence of live tumor cells was measured using an AMI optical imager (Spectral Instruments) and dose-response curves were generated. Tumor survival was normalized to day one tumor fluorescence and compared to an untreated control group.
To engraft onto OBSCs, the cryopreserved/thawed or fresh brain tumor tissue was filtered through a 100 μm cell strainer. Each 50 mg of tissue was transfected with 1mL mcherry-FLuc Lentivirus at 1.5e7 vg/ml with 1μL polybrene for 4h at 37°C. After incubation, the brain tumor tissue was washed with PBS three times to remove the residual virus and reconstituted in PBS with a final volume of 150 μL. […] The viability of the patient tissue was measured by an AMI optical imaging system with the addition of 1.5 mg/mL luciferin underneath the culture insert. […]
For DSS parameters 1–6, therapeutic windows were calculated by comparing OBSC toxicity and tumor response at the doses where tumor kill passed through the DSS parameter (Table S1 and S3). For DSS parameter 7, the therapeutic window was calculated by comparing the slopes through the tumor EC50 and the OBSC tox EC50. For DSS parameter 8, the therapeutic window was calculated by comparing the areas under tumor kill and OBSC tox curves. Normalized therapeutic window ratios for DSS parameters 1–8 within each drug-tumor-OBSC interaction were calculated in the following manner: within each window, values ranged from +1 to −1, where values approaching +1 signify increasing tumor kill relative to normal tissue toxicity, and values approaching −1 indicate agents where tumors remained highly viable while toxicity to the normal OBSC tissue was elevated. […]

[7] = system: MS21 (low-passage patient-derived GBM line); experiment: Drug screening of MS21 tumor foci on OBSCs; assay type: cell-based, human
Procedure, shortened: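 Tumor foci (25,000 cells) were seeded onto organotypic brain slice cultures 2 h after slicing, two per slice; one day later six drug concentrations were added to the medium or X-ray was applied. Bioluminescence was read 3 days after treatment, normalized to day-one fluorescence and to untreated controls.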

[8] = system: U373KO (RAD18 knockout of U373WT via CRISPR); experiment: Drug screening of U373KO tumor foci on OBSCs; assay type: cell-based, human; conditions: U373 KO on OBSCs
Procedure, shortened: as §1

[9] = system: PDIPG (low-passage pediatric patient-derived line); experiment: Drug screening of PDIPG tumor foci on OBSCs; assay type: cell-based, human
Procedure, shortened: as §1

[10] = area under the dose-response curve, trapezoidal rule
[11] = dose required to kill 10% of the tumor
[12] = dose required to kill 25% of the tumor
[13] = Homo sapiens, U373 MG, dose required to kill 50% of the tumor
[14] = Homo sapiens, U373 MG, dose required to kill 90% of the tumor
[15] = Homo sapiens, U373 MG, dosed day 1, survival via bioluminescence day 4, linear interpolation

Nc1ccn([C@@H]2O[C@H](CO)[C@@H](O)C2(F)F)c(=O)n1 [Gemcitabine]
Killing at highest dose [1]: 2.80E-01 fraction of tumor population killed | EC50 ([1]; Homo sapiens, LN-229, dose required to kill 50% of the tumor): > 10 µM | EC90 ([1]; Homo sapiens, LN-229, dose required to kill 90% of the tumor): > 10 µM | IC50 ([1]; Homo sapiens, LN-229, dosed day 1, survival via bioluminescence day 4, linear interpolation): > 10 µM | AUC [1, 10]: 7.06E+01 | EC10 [1, 11]: 6.23 µM | EC25 [1, 12]: 8.4 µM | Slope ([1]; slope through the EC50): -5.45E-03 | EC50 ([2]; Homo sapiens, MB231BR on OBSCs, dose required to kill 50% of the tumor): > 10 µM | EC90 ([2]; Homo sapiens, MB231BR on OBSCs, dose required to kill 90% of the tumor): > 10 µM | IC50 ([2]; Homo sapiens, MB231Br on OBSCs, dosed day 1, survival via bioluminescence day 4, linear interpolation): > 10 µM | Killing at highest dose ([2]; MB231BR on OBSCs): -7.90E-01 fraction of tumor population killed | Slope ([2]; MB231BR on OBSCs, slope through the EC50): 1.56E-02 | EC90 [3]: > 10 µM | EC50 [4, 13]: > 10 µM | EC90 [4, 14]: > 10 µM | IC50 [4, 15]: > 10 µM | Killing at highest dose [4]: 3.30E-01 fraction of tumor population killed | AUC [4, 10]: 7.29E+01 | EC10 [4, 11]: 0.385 µM | EC25 [4, 12]: 50 µM | Slope ([4]; slope through the EC50): -1.60E-03 | Killing at highest dose ([5]; GBM8 on OBSCs): 9.80E-01 fraction of tumor population killed | AUC ([5]; GBM8 on OBSCs, area under the dose-response curve, trapezoidal rule): 2.79E+00 | EC10 ([5]; GBM8 on OBSCs, dose required to kill 10% of the tumor): 0.0676 µM | EC25 ([5]; GBM8 on OBSCs, dose required to kill 25% of the tumor): 0.169 µM | EC75 ([5]; GBM8 on OBSCs, dose required to kill 75% of the tumor): 0.533 µM | Slope ([5]; GBM8 on OBSCs, slope through the EC50): -1.48E+00 | EC90 ([5]; Homo sapiens): 2 µM | EC50 ([5]; Homo sapiens, GBM8 on OBSCs, dose required to kill 50% of the tumor, read-out: EC50): 0.338 µM | IC50 ([5]; Homo sapiens, GBM8 on OBSCs, dosed day 1, survival via bioluminescence day 4, linear interpolation, read-out: IC50): 0.34 µM | EC90 [6]: > 10 µM | EC90 ([7]; Homo sapiens): > 10 µM | EC50 ([7]; Homo sapiens, MS21 on OBSCs, dose required to kill 50% of the tumor, read-out: EC50): > 10 µM | IC50 ([7]; Homo sapiens, MS21 on OBSCs, dosed day 1, survival via bioluminescence day 4, linear interpolation, read-out: IC50): > 10 µM | Killing at highest dose ([7]; MS21 on OBSCs): -1.20E-01 fraction of tumor population killed | EC50 [8, 13]: 0.868 µM | EC90 [8, 14]: > 10 µM | IC50 [8, 15]: 0.9 µM | Killing at highest dose [8]: 6.20E-01 fraction of tumor population killed | AUC [8, 10]: 3.67E+01 | EC10 [8, 11]: 0.139 µM | EC25 [8, 12]: 0.347 µM | Slope ([8]; slope through the EC50): -3.80E-01 | EC90 ([9]; Homo sapiens): > 10 µM | EC50 ([9]; Homo sapiens, PDIPG on OBSCs, dose required to kill 50% of the tumor, read-out: EC50): > 10 µM | IC50 ([9]; Homo sapiens, PDIPG on OBSCs, dosed day 1, survival via bioluminescence day 4, linear interpolation, read-out: IC50): > 10 µM | Killing at highest dose ([9]; PDIPG on OBSCs): 4.80E-01 fraction of tumor population killed | AUC ([9]; PDIPG on OBSCs, area under the dose-response curve, trapezoidal rule): 5.72E+01 | EC25 ([9]; PDIPG on OBSCs, dose required to kill 25% of the tumor): 0.284 µM | Slope ([9]; PDIPG on OBSCs, slope through the EC50): -3.03E-04
